These results are taken from patent EP2140864A2 (H. Lundbeck A/S, priority 2001, dated 2002).

Assay [1] relates to Male albino Sprague-Dawley rats. Nature of the assay: Rat Social Interaction Test (SIT). It counts as in vivo.
The test system is the same in assay [2]. Nature of the assay: Rat Social Interaction Test (SIT). Type of assay: in vivo. As to conditions: 5 mg/kg i.p., 1 hour prior to testing. The protocol:
Rats were allowed to acclimate to the animal care facility for 5 days and were housed singly for 5 days prior to testing. Animals were handled for 5 minutes per day. The design and procedure for the Social Interaction Test was carried out as previously described by Kennett, et al. (1997). On the test day, weight matched pairs of rats (± 5%), unfamiliar to each other, were given identical treatments and returned to their home cages. Animals were randomly divided into 5 treatment groups, with 5 pairs per group, and were given one of the following i.p. treatments: Example 92 (10, 30 or 100 mg/kg), vehicle (1 ml/kg) or chlordiazepoxide (5 mg/kg). Dosing was 1 hour prior to testing. Rats were subsequently placed in a white perspex test box or arena (54 x 37 x 26 cm), whose floor was divided up into 24 equal squares, for 15 minutes. An air conditioner was used to generate background noise and to keep the room at approximately 74°F. All sessions were videotaped using a JVC camcorder (model GR-SZ1, Elmwood Park, NJ) with either TDK (HG ultimate brand) or Sony 30 minute videocassettes. All sessions were conducted between 1:00 - 4:30 P.M. Active social interaction, defined as grooming, sniffing, biting, boxing, wrestling, following and crawling over or under, was scored using a stopwatch (Sportsline model no. 226, 1/100 sec. discriminability). The number of episodes of rearing (animal completely raises up its body on its hind limbs), grooming (licking, biting, scratching of body), and face washing (i.e. hands are moved repeatedly over face), and number of squares crossed were scored. Passive social interaction (animals are lying beside or on top of each other) was not scored. All behaviors were assessed later by an observer who was blind as to the treatment of each pair. At the end of each test, the box was thoroughly wiped with moistened paper towels.
Male albino Sprague-Dawley rats (Taconic Farms, NY) were housed in pairs under a 12 hr light dark cycle (lights on at 0700 hrs.) with free access to food and water.
Example 92 was dissolved in 100% DMSO (Sigma Chemical Co., St. Louis, MO). Chlordiazepoxide (purchased from Sigma Chemical Co., St. Louis, MO) was dissolved in double distilled water. The vehicle consisted of 50% DMSO (v/v). All drug solutions were made up 10 minutes prior to injection and the solutions were discarded.
Example 34 was dissolved in 5% lactic acid, v/v. The vehicle consisted of 100% dimethylacetamide (DMA) and this was used to make up all drug solutions. All drug solutions were made up fresh each day and any unused solutions were discarded at the end of the test day. The volume of drug solution administered was 1 ml/kg.
The social interaction data (time interacting, rearing and squares crossed) were subjected to a randomized, one-way ANOVA and post hoc tests conducted using the Student-Newman-Keuls test. The data were subjected to a test of normality (Shapiro-Wilk test). The data were analyzed using the GBSTAT program, version 6.5 (Dynamics Microsystems, Inc., Silver Spring, MD, 1997). All data are presented as means ± S.E.M.

The mark [3] stands for this setting: 5 mg/kg p.o., one hour before test.

Marks after values point to notes of the source that are not given here.

As to `CNC1=Nc2ccc(Cl)cc2C(c2ccccc2)=[N+]([O-])C1` [Chlordiazepoxide, chlordiazepoxide, reference compound], the Rearings in assay [1] (5 mg/kg i.p., 1 hour prior to testing) is given as 30 ± 2. In addition, the “Social Interaction” value in assay [1] (5 mg/kg i.p., 1 hour prior to testing, unfamiliar rats, 15 minute test) is 188 ± 15^b sec; in assay [1] (5 mg/kg p.o., one hour before test, unfamiliar cage mates in a familiar arena), 122 ± 18^S sec. The Grooming bouts in assay [1] (setting [3]) is 5.3 ± 0.7; in assay [2], 7.3 ± 1.3. In assay [1] (setting [3]), this compound registered a Rearing of 35 ± 2. For the same compound, the “Squares Crossed” value is recorded as 265 ± 30 in assay [1] (setting [3]) and 287 ± 28 in assay [2].
